How the values were obtained:
Type in all cases: physicochemical
[1] = Lubiprostone-excipient contact stability study, mechanical mixing of powder (Example 1C); conditions: for % of the initial: 55° C. 10 d, remaining lubiprostone by HPLC
Procedure: Test samples were prepared by direct (mechanical) mixing of various excipients and lubiprostone drug in approximately 50:50 and 99:1 ratios. The mechanical mixing of lubiprostone and excipients was conduct by admixing them using a conventional mortar. The prepared mixtures were then placed under accelerated stress stability conditions at 55° C. for 10 days. After 10 days, these samples were analyzed by HPLC to determine the amount of remaining lubiprostone and impurities generated as a result of the degradation of lubiprostone.

[2] = Lubiprostone-excipient contact stability study, solid solution (Example 1B); conditions: for % of the initial: 55° C. 10 d, remaining lubiprostone by HPLC
Procedure: Additional test samples were prepared for the study by admixing various excipients and lubiprostone drug in ratios of about 50:50 and about 99:1. Solid solutions were prepared by mixing lubiprostone/MeCN and Excipient/MeCN, combining these mixtures and then removing the solvent by evaporation. The prepared mixtures were then placed under accelerated stress stability conditions at 55° C. for 10 days. After 10 days, these samples were analyzed by HPLC method to determine the amount of remaining lubiprostone and impurities generated as a result of the degradation of lubiprostone.

[3] = Lubiprostone-excipient contact stability study (Example 1A); conditions: excipient:lubiprostone approx 50:50; 55° C. 10 days; HPLC
Procedure: Test samples were prepared for the study in approximately 50:50 proportion using various excipients and lubiprostone drug. These prepared mixtures were then placed on accelerated stress stability conditions at 55° C. for 10 days. After 10 days, these samples were analyzed by a suitable HPLC method to determine assay (the amount of remaining Lubiprostone) and impurities generated due to degradation of lubiprostone.

[4] = Mechanical mixing of powder 50:50
[5] = Mechanical mixing of powder 99:1

55° C. 10 d Impurities [1, 4]: 24.5
% of the initial [1, 4]: 55.6%
55° C. 10 d Impurities [1, 5]: 24.5
% of the initial [1, 5]: 55.6%
55° C. 10 d Impurities ([2]; Solid solution 50:50): 33.5
% of the initial ([2]; Solid solution 50:50): 44.4%
55° C. 10 d Impurities ([2]; Solid solution 99:1): 35.5
% of the initial ([2]; Solid solution 99:1): 44.4%
Assay (% of initial) [3]: 42.3%
Total Impurities [3]: 59.0%
SMILES: CCCCC(F)(F)[C@@]1(O)CC[C@H]2[C@@H](CC(=O)[C@@H]2CCCCCCC(=O)O)O1 [Lubiprostone, (−)-7-[(2R,4aR,5R,7aR)-2-(1,1-difluoropentyl)-2-hydroxy-6-oxooctahydrocyclopenta[b]pyran-5-yl]heptanoic acid]

Source: patent US11534404B2, “Multilayer beads for pharmaceutical use” (Sucampo AG, priority 2016, dated 2022)
